Results: ChEMBL document CHEMBL3627688, “Structure-based hybridization, synthesis and biological evaluation of novel tetracyclic heterocyclic azathioxanthone analogues as potential antitumor agents” (Eur J Med Chem, 2015)
The source made the active and inactive calls. No cut-off for these calls is given here.

Assays:
PC-3 = test: Antiproliferative activity against human PC3 cells assessed as cell viability incubated for 72 hrs by MTT assay; format: functional, cell-based; details: PC-3, 72 h
DU-145 = test: Antiproliferative activity against human DU145 cells assessed as cell viability incubated for 72 hrs by MTT assay; format: functional, cell-based; details: DU-145, 72 h
[1] = molecular target: DNA topoisomerase 1 (Homo sapiens) (UniProt P11387); test: Inhibition of human recombinant topoisomerase 1 assessed as blocking of supercoiled pHOT DNA relaxation at 50 uM incubated for 25 mins at 37 degC by ethidium bromide staining based agarose gel electrophoresis
[2] = molecular target: DNA topoisomerase 2-alpha (Homo sapiens) (UniProt P11388); test: Inhibition of human recombinant topoisomerase 2 alpha assessed as blocking of supercoiled pHOT DNA relaxation at 50 uM incubated for 45 mins at 37 degC by ethidium bromide staining based agarose gel electrophoresis
Sequence of DNA topoisomerase 2-alpha (Homo sapiens) (P11388 whole entry): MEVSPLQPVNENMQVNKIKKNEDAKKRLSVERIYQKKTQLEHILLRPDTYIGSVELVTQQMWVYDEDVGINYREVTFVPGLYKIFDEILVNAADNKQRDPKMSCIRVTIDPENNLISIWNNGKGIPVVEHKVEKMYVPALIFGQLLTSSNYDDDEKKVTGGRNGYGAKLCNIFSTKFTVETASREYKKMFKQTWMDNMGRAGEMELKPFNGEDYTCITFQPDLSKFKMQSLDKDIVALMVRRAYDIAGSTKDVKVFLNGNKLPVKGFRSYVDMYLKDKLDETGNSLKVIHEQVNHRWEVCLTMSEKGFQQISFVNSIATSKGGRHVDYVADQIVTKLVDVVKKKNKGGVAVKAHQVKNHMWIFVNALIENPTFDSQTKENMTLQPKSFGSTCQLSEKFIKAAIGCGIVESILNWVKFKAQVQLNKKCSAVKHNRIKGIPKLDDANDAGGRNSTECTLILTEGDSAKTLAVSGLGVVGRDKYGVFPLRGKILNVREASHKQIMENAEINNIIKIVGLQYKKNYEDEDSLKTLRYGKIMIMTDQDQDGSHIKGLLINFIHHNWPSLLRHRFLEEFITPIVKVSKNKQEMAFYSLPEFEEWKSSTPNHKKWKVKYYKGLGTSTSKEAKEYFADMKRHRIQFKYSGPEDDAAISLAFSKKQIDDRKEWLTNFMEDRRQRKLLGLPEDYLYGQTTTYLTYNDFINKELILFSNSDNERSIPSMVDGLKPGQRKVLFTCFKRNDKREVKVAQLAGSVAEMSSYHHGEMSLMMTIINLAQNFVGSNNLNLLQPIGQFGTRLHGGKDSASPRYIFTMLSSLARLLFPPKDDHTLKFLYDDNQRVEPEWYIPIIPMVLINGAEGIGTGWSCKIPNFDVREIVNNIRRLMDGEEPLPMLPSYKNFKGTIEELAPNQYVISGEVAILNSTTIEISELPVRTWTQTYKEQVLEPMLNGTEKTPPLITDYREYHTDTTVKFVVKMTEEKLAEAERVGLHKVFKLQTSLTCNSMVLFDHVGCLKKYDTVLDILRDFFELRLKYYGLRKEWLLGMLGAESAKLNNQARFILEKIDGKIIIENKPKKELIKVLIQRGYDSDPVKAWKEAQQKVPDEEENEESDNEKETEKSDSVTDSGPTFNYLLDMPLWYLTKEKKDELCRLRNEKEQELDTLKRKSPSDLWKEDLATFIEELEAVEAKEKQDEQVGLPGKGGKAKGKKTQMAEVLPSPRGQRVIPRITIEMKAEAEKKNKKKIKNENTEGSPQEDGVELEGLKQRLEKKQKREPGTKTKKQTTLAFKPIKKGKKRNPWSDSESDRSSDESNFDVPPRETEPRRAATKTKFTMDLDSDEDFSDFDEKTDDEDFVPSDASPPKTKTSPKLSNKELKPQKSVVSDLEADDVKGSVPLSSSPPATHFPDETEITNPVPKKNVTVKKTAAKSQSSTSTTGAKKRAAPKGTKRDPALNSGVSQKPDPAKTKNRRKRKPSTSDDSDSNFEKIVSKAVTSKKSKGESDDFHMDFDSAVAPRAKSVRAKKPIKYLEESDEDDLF

Sequence of DNA topoisomerase 1 (Homo sapiens) (P11387 whole entry): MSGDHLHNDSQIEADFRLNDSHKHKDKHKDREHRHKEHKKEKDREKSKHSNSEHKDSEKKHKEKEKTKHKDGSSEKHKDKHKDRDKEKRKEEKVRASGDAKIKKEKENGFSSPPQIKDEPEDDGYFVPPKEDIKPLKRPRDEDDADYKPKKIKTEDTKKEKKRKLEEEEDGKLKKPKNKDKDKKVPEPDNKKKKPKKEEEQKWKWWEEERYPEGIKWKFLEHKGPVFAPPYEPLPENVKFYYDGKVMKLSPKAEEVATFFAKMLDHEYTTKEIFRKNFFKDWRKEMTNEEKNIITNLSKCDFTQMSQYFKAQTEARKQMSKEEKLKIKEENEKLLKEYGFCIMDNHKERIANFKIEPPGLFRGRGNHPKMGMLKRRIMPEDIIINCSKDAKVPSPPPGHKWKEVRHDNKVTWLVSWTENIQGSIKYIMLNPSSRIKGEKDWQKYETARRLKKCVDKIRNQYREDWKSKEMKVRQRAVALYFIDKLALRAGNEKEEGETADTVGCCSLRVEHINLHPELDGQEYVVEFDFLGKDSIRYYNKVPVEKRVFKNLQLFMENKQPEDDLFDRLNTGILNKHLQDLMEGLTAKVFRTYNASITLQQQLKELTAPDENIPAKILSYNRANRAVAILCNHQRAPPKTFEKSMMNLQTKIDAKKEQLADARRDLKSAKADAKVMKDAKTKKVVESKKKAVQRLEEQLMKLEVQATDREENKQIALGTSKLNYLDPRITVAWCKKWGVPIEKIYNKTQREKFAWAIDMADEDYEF

Work on `O=c1c2cc(Cl)ccc2sc2c(N3CCCCC3)nc3ccccc3c12` yielded an IC50 (PC-3) of over 15 µM and an IC50 (DU-145) of 13.4 µM.
Work on `O=c1c2cc(Cl)ccc2sc2c(N3CCC(Cc4ccccc4)CC3)nc3ccccc3c12` yielded an IC50 (PC-3) of over 15 µM and an IC50 (DU-145) of over 15 µM.
`O=c1c2cc(Cl)ccc2sc2c(N3CCC(CCCC4CCNCC4)CC3)nc3ccccc3c12` was tested, and the IC50 (PC-3) was 6.36 µM, the inhibition [1] was “Active” and the IC50 (DU-145) was 9.02 µM.
With `O=c1c2cc(Cl)ccc2sc2c(N3CCCC3)nc3ccccc3c12` the IC50 (PC-3) was over 15 µM and the IC50 (DU-145) was over 15 µM.
Compound `CC[C@@]1(O)C(=O)OCc2c1cc1n(c2=O)Cc2cc3ccccc3nc2-1` [CAMPTOTHECIN] has an IC50 (PC-3) of 0.1 µM and an IC50 (DU-145) of 0.1 µM.
In the case of `COc1cc([C@@H]2c3cc4c(cc3[C@@H](O[C@@H]3O[C@@H]5CO[C@@H](C)O[C@H]5[C@H](O)[C@H]3O)[C@H]3COC(=O)[C@H]23)OCO4)cc(OC)c1O` [ETOPOSIDE], the IC50 (PC-3) is reported as 4.33 µM, the IC50 (DU-145) is reported as 0.4 µM and the inhibition [2] is reported as “Active”.
`O=c1c2cc(Cl)ccc2sc2c(N3CCC(O)CC3)nc3ccccc3c12` was tested, and the IC50 (PC-3) was 9.55 µM, the inhibition [1] was “Active” and the IC50 (DU-145) was 11.1 µM.
`COc1cccc2c1C(=O)c1c(O)c3c(c(O)c1C2=O)C[C@@](O)(C(=O)CO)C[C@@H]3O[C@H]1C[C@H](N)[C@H](O)[C@H](C)O1` [DOXORUBICIN] showed an IC50 (DU-145) of 0.12 µM.
With `O=c1c2cc(Cl)ccc2sc2c(N3CCC(N4CCCCC4)CC3)nc3ccccc3c12` the IC50 (PC-3) was 14.2 µM and the IC50 (DU-145) was 10.2 µM.
`O=c1c2cc(Cl)ccc2sc2c(N3CCSCC3)nc3ccccc3c12` was tested, and the IC50 (PC-3) was over 15 µM and the IC50 (DU-145) was over 15 µM.
